Test results reported in patent publication US11844853B2, “Antiperspirant composition” (Conopco, Inc., priority 2018, dated 2023).

Experiment: Percentage flow rate reduction (PFRR) of artificial sweat across a membrane coated with antiperspirant active
Conditions: metal deposited 0.004 g/membrane; 12 micron pore size, 50 mm dia.; flow of artificial sweat under 60 cm constant water bar pressure (5.9 kPa)
Experimental: The above solutions were deposited on a membrane as give below such that the metal deposited was 0.004 g/membrane.
Whatman cellulose nitrate membranes (AE 100, 12 micron nominal pore size, 50 mm dia.) were coated with required volume of desired % w/v or w/w solution of ACH in water. The coated membranes were taken out and kept in air for 30 mins. Then the membranes were put into a closed chamber having 250 ml 10% (v/v) ammoniacal solution inside to generate an ammoniacal blanketing at 25-30° C. temperature, for 4 hrs to neutralize the active. Then the neutralized membranes were kept in air for 6 hrs to remove excess moisture and were used for flow rate assessment. The membranes were fitted in the Millipore filtration set up and flow rate of artificial sweat under 60 cm constant water bar pressure was measured. The selected water bar pressure corresponds to 5.9 kPa, which is reported as the average secretory pressure of the sweat glands (avg.SPSG)
Whatman cellulose nitrate membranes (AE 100, 12 micron nominal pore size, 50 mm dia.) were coated with required volume of desired % w/v or w/w solution of zinc complex in ethanol. The coated membranes were taken out and kept in air for 15 mins. […]
The percentage flow rate reduction was calculated using the equation:

| Substance | Avg % PFRR N = 8 [%] |
| --- | --- |
| Aluminium chlorohydrate [Example A] | 66 |
| Zinc lysine complex [Example C, Zinc lysine complex [Zn (lysine)2. Cl2.2H2O]] | 10 |
